Test results taken from patent publication US20090203709A1, “Pharmaceutical Dosage Form For Oral Administration Of Tyrosine Kinase Inhibitor” (ABBOTT LABORATORIES, priority 2008, published 2009).
“Also recorded” adds a separate entry of the source. Read-outs that look alike come from different tables or passages of the source.

Assay: Study M04-710 pharmacokinetics, multiple-dose escalation, non-hematologic malignancies
Assay type: in vivo, human
Conditions: for AUC∞/D / Cmax/D / AUC0-24/D / Cmax / Tmax / AUC(0-t) / AUC(0-inf) / clearance / half-life: mean ± SD; for Cmax / Tmax / AUC(0-t) / AUC(0-inf) / clearance / half-life: human, plasma; for AUC(0-t): read-out: AUC0-24
Procedure: In study M04-710, blood samples for pharmacokinetic analysis were collected on Days 1 and 15 at the following times: 0 (pre-dose), 0.5, 1, 2, 3, 4, 6, 8, and 24 h (Day 1 only).
In study M05-756, blood samples for pharmacokinetic analysis were collected on Days 1 and 8 at the following times: 0 (pre-dose), 0.5, 1, 2, 3, 4, 6, 8, and 24 h (Day 1 only). Urine was collected for the 24 hour period following dosing on Day 13 through bedtime on Day 14 (non-hematologic malignancy study) and following dosing after Day 6 and through bedtime on Day 7 (AML/MDS study). Plasma and urine concentrations of ABT-869 were determined under the supervision of the Drug Analysis Department at Abbott using LCMS/MS. PK parameters were determined by noncompartmental analysis using WinNonlin Professional Version 5.0.1.

[1] = Study Day 1, 10 mg (~0.20 mg/kg)
[2] = Study Day 15, 10 mg (~0.20 mg/kg)
[3] = oral, 0.1 mg/kg, Study Day 15, 0.10 mg/kg
[4] = oral, 0.1 mg/kg, Study Day 1, 0.10 mg/kg
[5] = oral, 0.25 mg/kg, Study Day 1, 0.25 mg/kg
[6] = oral, 0.25 mg/kg, Study Day 15, 0.25 mg/kg
[7] = oral, 0.3 mg/kg, Study Day 15, 0.30 mg/kg
[8] = oral, 0.3 mg/kg, Study Day 1, 0.30 mg/kg
[9] = oral, 10 mg, Study Day 1, 10 mg (~0.20 mg/kg)
[10] = oral, 10 mg, Study Day 15, 10 mg (~0.20 mg/kg)
[11] = oral, Study Day 1, 10 mg (~0.20 mg/kg)

dose recovered in the urine as unchanged ABT-869 (24 hour urine, N=4): ~4%
AUC∞/D (Study Day 1, 0.10 mg/kg): 0.51 ± 0.21 µg·h/mL/mg
Cmax/D (Study Day 1, 0.10 mg/kg): 0.020 ± 0.007 µg/mL/mg
AUC∞/D (Study Day 1, 0.25 mg/kg): 0.41 ± 0.19 µg·h/mL/mg
Cmax/D (Study Day 1, 0.25 mg/kg): 0.019 ± 0.006 µg/mL/mg
AUC∞/D (Study Day 1, 0.30 mg/kg): 0.47 ± 0.19 µg·h/mL/mg
Cmax/D (Study Day 1, 0.30 mg/kg): 0.020 ± 0.008 µg/mL/mg
AUC∞/D [1]: 0.41 ± 0.22 µg·h/mL/mg
Cmax/D [1]: 0.021 ± 0.012 µg/mL/mg
AUC0-24/D (Study Day 15, 0.10 mg/kg): 0.35 ± 0.15 µg·h/mL/mg
Cmax/D (Study Day 15, 0.10 mg/kg): 0.024 ± 0.008 µg/mL/mg
AUC0-24/D (Study Day 15, 0.25 mg/kg): 0.30 ± 0.08 µg·h/mL/mg
Cmax/D (Study Day 15, 0.25 mg/kg): 0.022 ± 0.006 µg/mL/mg
AUC0-24/D (Study Day 15, 0.30 mg/kg): 0.30 ± 0.07 µg·h/mL/mg
Cmax/D (Study Day 15, 0.30 mg/kg): 0.022 ± 0.008 µg/mL/mg
AUC0-24/D [2]: 0.35 ± 0.20 µg·h/mL/mg
Cmax/D [2]: 0.026 ± 0.019 µg/mL/mg
Cmax [3]: 140 ± 50 ng/mL
Tmax [3]: 3.7 ± 1.5 h
AUC(0-t) [3]: 2100 ± 900 ng·h/mL
AUC(0-inf) [4]: 3100 ± 1400 ng·h/mL
Cmax [4]: 120 ± 50 ng/mL
Tmax [4]: 3.5 ± 1.5 h
clearance [4]: 38.3 mL/min
half-life [4]: 19 ± 5.6 h
Cmax [5]: 260 ± 90 ng/mL
Tmax [5]: 2.7 ± 0.8 h
Cmax [6]: 310 ± 120 ng/mL
Tmax [6]: 3.5 ± 1 h
Cmax [7]: 390 ± 170 ng/mL
Tmax [7]: 3.3 ± 0.6 h
AUC(0-t) [7]: 5300 ± 1500 ng·h/mL
AUC(0-inf) [8]: 7900 ± 2000 ng·h/mL
Cmax [8]: 340 ± 90 ng/mL
Tmax [8]: 2 h
clearance [8]: 40 mL/min
half-life [8]: 22 ± 2.4 h
Cmax [9]: 210 ± 120 ng/mL
Tmax [9]: 3.3 ± 1.5 h
Cmax [10]: 220 ± 170 ng/mL
Tmax [10]: 3 h
AUC(0-inf) (oral, Study Day 1, 0.25 mg/kg): 5800 ± 2900 ng·h/mL
clearance (oral, Study Day 1, 0.25 mg/kg): 50 mL/min
half-life (oral, Study Day 1, 0.25 mg/kg): 18.9 ± 6.2 h
AUC(0-inf) [11]: 4100 ± 2200 ng·h/mL
clearance [11]: 50 mL/min
half-life [11]: 14.4 ± 4.6 h
AUC(0-t) (oral, Study Day 15, 0.25 mg/kg): 4300 ± 2100 ng·h/mL
AUC(0-t) (oral, Study Day 15, 10 mg (~0.20 mg/kg)): 3000 ± 1500 ng·h/mL
SMILES: Cc1ccc(F)c(NC(=O)Nc2ccc(-c3cccc4[nH]nc(N)c34)cc2)c1 [ABT-869, N-[4-(3-amino-1H-indazol-4-yl)phenyl]-N′-(2-fluoro-5-methylphenyl)urea]
dose proportionality and time dependence of PK (0.10 to 0.30 mg/kg QD, oral): dose-proportional and time-invariant; also recorded: approximately dose-proportional (0.10-0.30 mg/kg QD, oral) and time independent with minimal accumulation at day 15
